Experimental data published in patent US20150191445A1, “ACYL-HYDRAZONE AND OXADIAZOLE COMPOUNDS, PHARMACEUTICAL COMPOSITIONS CONTAINING THE SAME AND USES THEREOF” (Universidade Federal de Santa Catarina, priority 2011, published 2015).
Entries after “also recorded” stand apart in the source; their conditions may differ.

Key:
Jurkat cells = assay: Cell cycle analysis, propidium iodide flow cytometry; type: cell-based, human; conditions: 125 nM, 18 h
Procedure: The cells were incubated for 12 hours in fresh medium before experiments. Two million cells from the Jurkat line were incubated for 12 h, 18 h, 24 h and 30 h in RPMI-640 medium supplemented with 10% Fetal Bovine Serum (FCS) and 0.2% Penicillin/Streptomycin (PS) with a concentration of 125 nM of compound 07 or DMSO (vehicle).
The cells treated or not with compound 07 were fixed in 70% ethanol for 2 hours, washed in PBS and incubated for 15 min at 37° C. in 1 mL of Triton X-100 0.1% 0.2 mg/mL of RNAse and 20 μg/mL propidium iodide in PBS. 20,000 events were collected on FACSCalibur flow cytometer with red fluorescence quantification, excluding any cell aggregates by the standard width vs. red fluorescence peak area. The data deconvolution to obtain the percentage of cells in each phase of cell cycle was performed using ModFit software v2.0.

[1] = system: Bone marrow cells from healthy donors; assay: Colony formation assay of hematopoietic cells; type: cell-based, human; conditions: for Colony formation BFU-E / Colony formation CFU-E / Colony formation CFU-G / Colony formation CFU-GEMM / Colony formation CFU-GM / Colony formation CFU-M: two weeks of culture
Procedure: Cytotoxicity of compound 07 was also evaluated with a colony formation assay of hematopoietic cells. A “HSC-CFU complete with Epo” kit from Miltenyi (Cat #130-091-280) was used following the manufacturer's recommendations. Bone marrow cells from healthy donors were cultured in semi-solid methylcellulose medium supplemented with bovine fetal serum, bovine serum albumin, different growth factors (GM-CSF, G-CSF, SCF, IL-3, IL-6, Epo) and compound 07, whose action on hematopoiesis was evaluated. After two weeks of culture at 37° C. and 5% CO2, an assessment of the number of granulocytes (CFU-G), macrophage (CFU-M), granulocyte/macrophage (CFU-GM), erythroid (BFU-E and CFU-E) and mixed (CFU-GEMM) colonies was carried out.

REH cells = assay: MTT cytotoxicity assay, REH cell line; type: cell-based, human; conditions: 48 h of treatment
Procedure: All compounds were resuspended in DMSO at stock concentration of 20 mM and stored at −20° C. For cytotoxicity testing, the dilutions from the stock solutions were made in culture medium (RPMI-1640 plus 10% of fetal bovine serum, 100 IU/ml penicillin and 100 µg/mL Streptomycin), immediately before being discharged to the cells.
The REH and Jurkat cell lines were maintained in
RPMI-1640 medium with 10% FBS (fetal bovine serum), 100 IU/mL penicillin, 100 µg/mL streptomycin and incubated at 37° C. and 5% CO2. Cytotoxicity assays were performed according to the method described in the literature (Pieters, R.; et al. In vitro drug sensitivity of cells from children with leukemia using the MTT assay with improved culture conditions. Blood, 1990, 76, 2327-2336; Pieters, R.; et al. Relation of cellular drug resistance to long-term clinical outcome in childhood acute lymphoblastic leukaemia. Lancet, 1991, 338, 399-403 e Kaspers, G. J.; et al. In vitro cellular drug resistance and prognosis in newly diagnosed childhood acute lymphoblastic leukemia. Blood, 1997, 90, 2723). Cells were resuspended at a concentration of 3.75 10^5 cells/mL in culture medium as described. Eighty microliters of this suspension were seeded into plates with 96 round-bottom wells, containing 20 microliters of different concentrations of compound or vehicle alone. Each treatment was done in triplicate. After 48 hours of incubation at 37° C. and 5% CO2, 20 μL of MTT solution was added (5 mg/mL of 1x PBS), followed by further incubation for 4 hours and 30 minutes at 37° C. and 5% CO2. During these 4 hours and 30 minutes, MTT (yellowish) is metabolized to formazan salt (bluish in color) by living cells. After this, 100 μL sodium dodecyl sulphate (SDS) 10%+0.1M of HCl were added to dissolve the formazan crystals. After incubating overnight, absorbance reading at 570 nm was carried out. The percentage of cells surviving the treatment were calculated relative to the number of surviving cells in the medium without addition of the compounds in question (“negative control”).
c) Determination of IC: IC50 is defined as the concentration of a compound at which 50% of maximal inhibition is obtained. After reading the absorbance, survival curves were constructed and the values of IC50 were obtained with the GraphPad Prism software.

[2] = system: healthy and phytohemagglutinin-stimulated lymphocytes; assay: MTT assay on normal lymphocytes stimulated with phytohemagglutinin; type: cell-based, human; conditions: for Percentage of survival: 48 h, MTT
Procedure: for the test of compound 07 against normal lymphocytes, blood from human donors was separated in a ficoll gradient and the mononuclear cells were cultivated at 200,000 cells/well, in 80 microliters of RPMI-1640 (containing 10% FBS, 100 IU/mL penicillin and 100 μg/mL streptomycin) and 20 microliters of phytohemagglutinin solution (Cultilab) in each well for stimulation of T lymphocytes. Compound 07 was added in serial dilutions (50%) from 300 to 1 nm. As a control, parallel tests were run with cells from leukemic Jurkat and REH cell lines, and experiments with colchicine with the same concentrations as compound 07. Cytotoxicity was assessed after 48 hours by the MTT method, as described Above.

[3] = target: Trypanosoma cruzi cruzain (Trypanosoma cruzi, UniProt P25779); conditions: cited from earlier work
[4] = system: human leukemic Jurkat cells and HEK; assay: Screening of compounds by cell viability assay (MTT) in leukemic cells; type: cell-based; conditions: leukemic cells of Jurkat and HEK strains
Procedure: RPMI-1640 medium with 10% FBS (fetal bovine serum), 100 IU/mL penicillin, 100 µg/mL streptomycin and incubated at 37° C. and 5% CO2. Cytotoxicity assays were performed according to the method described in the literature (Pieters, R.; et al. In vitro drug sensitivity of cells from children with leukemia using the MTT assay with improved culture conditions. Blood, 1990, 76, 2327-2336; Pieters, R.; et al. Relation of cellular drug resistance to long-term clinical outcome in childhood acute lymphoblastic leukaemia. Lancet, 1991, 338, 399-403 e Kaspers, G. J.; et al. In vitro cellular drug resistance and prognosis in newly diagnosed childhood acute lymphoblastic leukemia. Blood, 1997, 90, 2723). Cells were resuspended at a concentration of 3.75 10^5 cells/mL in culture medium as described. Eighty microliters of this suspension were seeded into plates with 96 round-bottom wells, containing 20 microliters of different concentrations of compound or vehicle alone. Each treatment was done in triplicate. […] After incubating overnight, absorbance reading at 570 nm was carried out. The percentage of cells surviving the treatment were calculated relative to the number of surviving cells in the medium without addition of the compounds in question (“negative control”). […]

Sequence of Trypanosoma cruzi cruzain (P25779 123-467): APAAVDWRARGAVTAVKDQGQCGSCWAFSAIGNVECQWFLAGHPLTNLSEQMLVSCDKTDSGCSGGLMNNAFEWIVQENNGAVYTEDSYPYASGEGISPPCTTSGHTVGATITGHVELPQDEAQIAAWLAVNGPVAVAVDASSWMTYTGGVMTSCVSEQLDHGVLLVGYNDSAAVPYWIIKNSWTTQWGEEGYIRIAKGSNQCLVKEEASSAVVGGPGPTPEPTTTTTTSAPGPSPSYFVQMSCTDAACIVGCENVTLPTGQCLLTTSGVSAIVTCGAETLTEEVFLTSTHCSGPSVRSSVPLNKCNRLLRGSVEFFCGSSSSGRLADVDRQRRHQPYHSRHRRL

With COc1cc(C(=O)NN=Cc2cccc3ccccc23)cc(OC)c1OC [Compound 07] the “effect on cell cycle” value (Jurkat cells) was “cell cycle arrest in G2/M”, the “Colony formation BFU-E” value ([1]; 2 nM) was 39% and the “Colony formation CFU-E” value ([1]; 2 nM) was 23%. The “Colony formation CFU-G” value ([1]; 2 nM) was 11%, the “Colony formation CFU-GEMM” value ([1]; 2 nM) was 1% and the “Colony formation CFU-GM” value ([1]; 2 nM) was 52%. The “Colony formation CFU-M” value ([1]; 2 nM) was 17%, the “effect on erythrocyte formation” value ([1]; 20 nM) was “inhibitory activity on erythrocyte formation comparable to a PI3K inhibitor” and the “effect on granulocytes and macrophages” value ([1]; 20 nM) was “inhibitory activity against granulocytes and macrophages, although low in intensity when compared to a F13K inhibitor”. The “Colony formation BFU-E” value ([1]; 20 nM) was 26%, the “Colony formation CFU-E” value ([1]; 20 nM) was 11% and the “Colony formation CFU-G” value ([1]; 20 nM) was 14%. The “Colony formation CFU-GEMM” value ([1]; 20 nM) was 2%, the “Colony formation CFU-GM” value ([1]; 20 nM) was 27% and the “Colony formation CFU-M” value ([1]; 20 nM) was 25%. For the same compound, the effect on hematopoiesis ([1]; 200 nM) was “completely inhibited hematopoiesis”, the “Colony formation BFU-E” value ([1]; 200 nM) was 0% and the “Colony formation CFU-E” value ([1]; 200 nM) was 0%. The “Colony formation CFU-G” value ([1]; 200 nM) was 0%, the “Colony formation CFU-GEMM” value ([1]; 200 nM) was 0% and the “Colony formation CFU-GM” value ([1]; 200 nM) was 0%. For the same compound, the “Colony formation CFU-M” value ([1]; 200 nM) was 0%, the IC50 (REH cells) was 25.4 nM and the “effect on normal lymphocytes induced by phytohemagglutinin” value [2] was “do not appear to affect normal lymphocytes”. For the same compound, the “selectivity for leukemic cells compared to healthy human lymphocytes” value [2] was roughly 10 times, the Percentage of survival ([2]; 4.6 nM) was 103% and the Percentage of survival ([2]; 9.38 nM) was 105%. For the same compound, the Percentage of survival ([2]; 18.75 nM) was 105%, the Percentage of survival ([2]; 37.5 nM) was 101% and the Percentage of survival ([2]; 75 nM) was 108%. For the same compound, the Percentage of survival ([2]; 150 nM) was 107%, the Percentage of survival ([2]; 300 nM) was 95% and the “inhibitory activity of cruzain” value [3] was “did not show inhibitory activity”. The antileukemic activity [4] was “excellent antileukemic activity; also recorded: significant antileukemic activity”.
